Source: patent publication US20190065668A1, “STRUCTURE OF […] IN COMPLEX WITH AN INHIBITOR AND USES THEREOF” (priority 2015, published 2019)
pEC50, pIC50, pKd: −log10 of the molar value. Counter-ions that a name gives are not always drawn. Like-named read-outs stand apart in the source and are kept apart here.

Legend:
[1] = molecular target: T1, recombinant P. falciparum plasmepsin V (Plasmodium falciparum, UniProt Q8I6Z5); assay: Fluorogenic PEXEL cleavage assay (KAHRP FRET peptide), inhibition of recombinant P. falciparum plasmepsin V; format: biochemical
T1 construct: FLAG tag + SUMO domain + TEV protease cleavage site (secreted via signal peptide) (N, cleaved yes); made in house; host or cells: sf21 insect cells
T1 sequence (Q8I6Z5 80-528): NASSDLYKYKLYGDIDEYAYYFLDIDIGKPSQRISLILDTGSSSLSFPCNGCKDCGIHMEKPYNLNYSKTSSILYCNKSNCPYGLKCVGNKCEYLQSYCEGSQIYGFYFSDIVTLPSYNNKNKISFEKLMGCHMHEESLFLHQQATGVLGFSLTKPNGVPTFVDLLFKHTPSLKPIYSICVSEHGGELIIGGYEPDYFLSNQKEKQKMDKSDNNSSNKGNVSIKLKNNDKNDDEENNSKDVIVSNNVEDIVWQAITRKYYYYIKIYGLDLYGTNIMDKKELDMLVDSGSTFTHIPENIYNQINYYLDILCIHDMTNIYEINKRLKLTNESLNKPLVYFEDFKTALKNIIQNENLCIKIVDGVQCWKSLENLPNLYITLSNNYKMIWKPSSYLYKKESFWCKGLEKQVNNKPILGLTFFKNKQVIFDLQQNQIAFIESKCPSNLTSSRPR
Experimental: (§1) PEXEL cleavage assays (20 μl total volume) consisted of 1 ng/well of P. vivax plasmepsin V or 1.5 ng/well of P. falciparum plasmepsin V in buffer (25 mM Tris.HCl, 25 mM MES, pH 6.4) with 5 μM FRET peptide substrate (DABCYL-[…]-E-EDANS (SEQ ID NO:7) or peptides with the sequence DABCYL-[…]-E-EDANS (SEQ ID NO:8) or DABCYL-[…]-E-EDANS (SEQ ID NO:9)) (Sleebs, B. E. et al. 2014a; see FIG. 9). Samples were incubated at 37° C. for 120 min and measured using an Envision plate (Perkin-Elmer) reader (Ex 340 nm/Em 490 nm).
Reactions comprised of a fluorescent peptide of nine amino acids containing the PEXEL sequence (RTLAQ) from KAHRP. The KAHRP PEXEL peptide substrate DABCYL-[…]-E-EDANS (SEQ ID NO:7) was obtained commercially and used at a final assay concentration of 7.5 μM.
The end-point for all assays was set within the linear range of activity (approximately 1 hr.).
Tween-20 was used at 0.005% final assay concentration. Final assay buffer concentration was as follows: 25 mM Tris HCl, 25 mM MES (pH 6.4). Final assay volume was 20 μL.
An 11-point 1/3 serial dilution of compounds was generated using DMSO as a diluent (final assay concentration of 1%).
Assay reaction was incubated for 60 min at 37° C. and read using a fluorescence plate reader (Ex 340 nm, Em 495 nm). […]

[2] = test system: plasmepsin V cleavage of the PEXEL in PfEMP3-GFP; assay: PfEMP3-GFP PEXEL processing in P. falciparum trophozoites (immunoblot / 35S radiolabelling and immunoprecipitation); format: cell-based, Plasmodium falciparum
From the text: P. falciparum 3D7 expressing the PEXEL protein erythrocyte membrane protein 3 (PfEMP3) fused to green fluorescent protein (GFP) (PfEMP3-GFP) was generated previously (Boddey, J. A. et al, 2010) (see FIG. 2C).
Membranes were probed with mouse a-GFP (Roche; 1:1000), rabbit a-Aldolase (1:1000) or rabbit a-HSP70 (1:4000) antibodies followed by horseradish peroxidase-conjugated secondary antibodies (Silenius; 1:2000) and visualized using enhanced chemiluminescence (Amersham). To radiolabel P. falciparum proteins, magnet-purified trophozoites expressing PfEMP3-GFP were treated with 10 μM inhibitors for 3 hr. […] PfEMP3-GFP protein species were then immunoprecipitated from parasite lysates solubilized in 1% Triton X-100/PBS containing 1× complete protease inhibitors (Roche) using anti-GFP agarose (MBL) for 2 hours at 4° C. and proteins were resolved by SDS-PAGE, visualized by autoradiography and quantified using a GS-800 Calibrated Densitometer (Bio-Rad) (Sleebs, B. E. et al. 2014a).

[3] = test system: export of PfEMP3-GFP to P. falciparum-infected erythrocytes; assay: Pulse chase of PfEMP3-GFP processing and export to infected erythrocytes (tetanolysin release); conditions: for export of PfEMP3-GFP to parasite-infected erythrocytes: 10 μM pre-treatment 3 hr
P. vivax plasmepsin V [4] = molecular target: T2, P. vivax plasmepsin V (Plasmodium vivax, UniProt A5K302); assay: Surface plasmon resonance (Biacore 4000) direct binding; conditions: SPR; for pKd: 25° C., 1:1 interaction model, read-out: affinity (KD) for P. vivax plasmepsin V; for kd (off-rate): P. vivax plasmepsin V
T2 construct: gp67 signal peptide + FLAG tag + SUMO domain + TEV protease cleavage site (N, cleaved yes); made in house; host or cells: High Five insect cells
T2 sequence (A5K302 33-476, looked up, natural form): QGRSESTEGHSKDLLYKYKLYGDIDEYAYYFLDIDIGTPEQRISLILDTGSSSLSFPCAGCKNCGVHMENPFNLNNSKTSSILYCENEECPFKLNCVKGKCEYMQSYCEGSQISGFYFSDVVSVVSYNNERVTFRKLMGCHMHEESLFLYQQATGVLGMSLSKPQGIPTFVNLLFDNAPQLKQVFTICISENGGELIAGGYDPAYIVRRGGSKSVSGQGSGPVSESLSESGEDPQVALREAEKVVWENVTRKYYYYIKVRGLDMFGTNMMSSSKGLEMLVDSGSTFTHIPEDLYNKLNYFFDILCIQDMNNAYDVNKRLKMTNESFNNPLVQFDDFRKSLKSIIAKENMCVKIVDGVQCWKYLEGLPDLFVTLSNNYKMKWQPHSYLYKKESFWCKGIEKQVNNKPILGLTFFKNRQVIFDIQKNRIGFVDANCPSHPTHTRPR
Experimental: Surface plasmon resonance was performed using a Biacore 4000 (GE Healthcare). Plasmepsin V was immobilized on a Series S CM5 sensor chip using amine-coupling chemistry. The surfaces of flow cells were activated for 10 min with a 1:1 mixture of 0.1 M NHS (N-hydroxysuccinimide) and 0.1 M EDC (3-(N,N-dimethylamino)propyl-N-ethylcarbodiimide) at a flow rate of […]. […] Compounds were allowed to associate and dissociate for 250 s and 600 s, respectively. Data were collected at a rate of 10 Hz and fit to a 1:1 interaction model using the Biacore 4000 Evaluation Software Version 1.0.

P. falciparum parasites = assay: P. falciparum growth assay, parasitaemia at 72 hr by flow cytometry
[5] = test system: plasmepsin V cleavage of the PEXEL in PfEMP3-GFP; conditions: PfEMP3-GFP processing; from Sleebs, B. E. et al. 2014; cited from earlier work
P. vivax plasmepsin V [6] = molecular target: T2, P. vivax plasmepsin V; assay: Fluorogenic PEXEL cleavage assay (KAHRP FRET peptide), inhibition of recombinant P. vivax plasmepsin V; format: biochemical; conditions: KAHRP fluorogenic substrate 7.5 μM, 60 min, 37° C., pH 6.4
[7] = molecular target: T1, recombinant P. falciparum plasmepsin V; assay: Kinetic characterisation of recombinant plasmepsin V (Michaelis-Menten / Lineweaver-Burk), P. falciparum enzyme; format: biochemical; conditions: fluorogenic PEXEL substrate from KAHRP
Experimental: (§2) The in vitro activity of recombinant P. falciparum and P. vivax plasmepsin V was assessed against a fluorogenic peptide of nine amino acids that contained the PEXEL sequence from knob-associated histidine-rich protein (“KAHRP”) (DABCYL-[…]-E-EDANS; SEQ ID NO: 7).
(§3) Values for Km were derived from both the inverse Michaelis-Menten and the Lineweaver-Burk plots. These values were of the same magnitude for each enzyme and are also similar to the Km derived from the activity of another recombinant form of P. falciparum plasmepsin V on a different PEXEL substrate (Xiao, H. et al. 2014).
as §1

P. vivax plasmepsin V [8] = molecular target: T2, P. vivax plasmepsin V; assay: Kinetic characterisation of recombinant plasmepsin V (Michaelis-Menten / Lineweaver-Burk), P. vivax enzyme; format: biochemical; conditions: fluorogenic PEXEL substrate from KAHRP
Experimental: as §2, §3, §1

[9] = read-out: EC50, inhibition of growth of P. falciparum (3D7) parasites, 3D7, chloroquine-sensitive strain, 72 hr

Molecule | increased potency against recombinant P. falciparum plasmepsin V compared to WEHI-916 ([1]; ratio of IC50 values) [fold] | inhibition of plasmepsin V cleavage of PfEMP3-GFP ([2]; 10 μM, 3 hours, immunoblot) | time required for optimal inhibition of plasmepsin V in parasites ([2]; PfEMP3-GFP processing) [h] | degree of PEXEL processing inhibition compared to WEHI-916 ([2]; PfEMP3-GFP, immunoblot) [fold] | inhibition of PEXEL cleavage (accumulation of 35 kDa full-length PfEMP3-GFP) ([2]; parasites expressing PfEMP3-GFP, immunoblot) | reversibility of inhibition of PEXEL cleavage after removal of inhibitor ([3]; 10 μM 3 hr, then inhibitor-free medium 30 and 60 min) | export of PfEMP3-GFP to parasite-infected erythrocytes ([3]; chase 20, 40 and 60 min) | export of PfEMP3-GFP to parasite-infected erythrocytes ([3]; chase 120 min) | pKd (P. vivax plasmepsin V [4]) | kd (off-rate) (P. vivax plasmepsin V [4]) | pEC50 (P. falciparum parasites; [9]) | pEC50 (P. falciparum parasites; read-out: EC50, inhibition of growth of P. falciparum CS2, CS2, 72 hr) | pEC50 (P. falciparum parasites; read-out: EC50, inhibition of growth of P. falciparum NF54, NF54, 72 hr) | pEC50 (P. falciparum parasites; read-out: EC50, inhibition of growth of P. falciparum W2mef, W2mef (chloroquine-resistant), 72 hr) | pIC50 ([1]; KAHRP fluorogenic substrate 7.5 μM, 60 min, 37° C., pH 6.4, read-out: IC50 against recombinant P. falciparum plasmepsin V) | time required for optimal inhibition of plasmepsin V in parasites [5] [h] | pEC50 (P. falciparum parasites; read-out: EC50, blocking P. falciparum growth, summary statement, strain not stated) | pIC50 (P. vivax plasmepsin V [6]) | Km [7] [µM] | Km (P. vivax plasmepsin V [8]) [µM]
CC(C)C[C@H](NC(=O)[C@@H](NC(=O)[C@H](CCON=C(N)N)NC(=O)OCc1ccccc1)C(C)C)[C@@H](O)CC(=O)NCCc1ccccc1 [WEHI-842, Cbz-Cav(NH2)—Val-Sta-NH(CH2)2Ph.TFA] | 15 | potently inhibited plasmepsin V cleavage of PfEMP3-GFP | 3 | 10 | efficiently inhibited PEXEL cleavage | reversible | dramatically reduced export | Efficient export of PfEMP3-GFP returned | 7.87 | 1.11 E-03 1/s | 6.40 | 6.08 | 6.33 | 6.19 | – | – | – | – | – | –
CC(C)C[C@H](NC(=O)[C@@H](NC(=O)[C@H](CCCNC(=N)N)NS(=O)(=O)Cc1ccccc1)C(C)C)[C@@H](O)CC(=O)NCCc1ccccc1 [WEHI-916, reference compound] | – | – | – | – | – | – | – | – | 7.38 | 2.47 E-03 1/s | 5.30 | – | – | – | 7.89 | 5 | 5.30 | 8.09 | – | –
DABCYL-RNKRTLAQKQ-E-EDANS [fluorogenic PEXEL substrate from KAHRP] | – | – | – | – | – | – | – | – | – | – | – | – | – | – | – | – | – | – | 20.2 | 6
